According to patent publication US20250340561A1, “QUINAZOLINE COMPOUND FOR INDUCING DEGRADATION OF G12D MUTANT KRAS PROTEIN” (Astellas Pharma Inc., priority 2021, published 2025):
Structures can show the parent of a compound that is named as a salt. Where two headings read alike, the source gives them in different places.

Key:
[1] = test system: phosphorylation of ERK (Thr202/Tyr204); assay: Test Example 2: ERK phosphorylation inhibition action in AsPC-1, Cell ELISA; format: cell-based, human; conditions: AsPC-1 cells, 0% = 1 μM trametinib
Procedure: Test Example 2: Evaluation of ERK Phosphorylation Inhibition Action on Human G12D Mutant KRAS-Positive Pancreatic Cancer Line AsPC-1
The ERK phosphorylation inhibition action of test compounds was evaluated by measuring phosphorylation of the 202th threonine (Thr202) and the 204th tyrosine (Tyr204) of ERK located downstream of the KRAS signal by Cell ELISA.
AsPC-1 cells were seeded on a 384-well plate (from Greiner bio-one) at 36 μL/well to give 2.0×10^4 cells per well. As for the cell culture conditions, a RPMI 1640 medium containing 10% fetal bovine serum was used in the presence of 5% CO2 at 37° C.
The next day, the test compounds (6 points having final concentrations in the range of 10 μM to 3.0 nM), trametinib (MEK inhibitor) of a final concentration of 1 μM as a positive control and DMSO, which was the solvent for the test compounds, as a negative control were diluted 100-fold with a fresh medium and were added at 4 μL per well. The cells were then cultured for 24 hours. After culturing, a 30% glyoxal solution (40% glyoxal [from Nacalai Tesque] was diluted with PBS) was quickly added at 30 μL per well, and the plate was allowed to stand for 90 minutes at room temperature to thus immobilize the cells. Then, the plate was centrifuged to remove the supernatant (using a centrifugal dehydrator machine, the supernatant was removed by the same method hereinafter), and 0.1% Triton X-100-containing PBS was added at 20 μL per well. After allowing to stand for 10 minutes at room temperature, the supernatant was removed by centrifugation, and the same operation was further repeated. Next, 0.5% SDS-containing PBS was added at 20 μL per well, and after allowing to stand at room temperature for 30 minutes, the supernatant was removed by centrifugation. Subsequently, a blocking solution (Intercept Blocking Buffer) was added at 20 μL per well, and the plate was allowed to stand for 1 hour at room temperature. The supernatant was removed by centrifugation, and an ERK (Thr202/Tyr204) phosphorylation antibody (Phospho-p44/42 MAPK (Erk 1/2) (Thr202/Tyr204) (D13.14.4E) XP Rabbit mAb; from Cell Signaling Technology) diluted 2,500-fold with a blocking solution was added at 10 or 15 μL per well as a primary antibody. The plate was allowed to stand at 4° C. overnight.
The next day, the plate was centrifuged to remove the supernatant. 0.05% Tween-20-containing PBS was added at 50 μL per well, and the supernatant was removed by centrifugation to thus wash each well. The washing was performed three times in total. After washing, Goat anti-Rabbit IgG H&L (IRDye 800CW) diluted 1,000-fold with a blocking solution was added at […] as a secondary antibody, and the plate was allowed to stand for 1 hour at room temperature. The plate was centrifuged to remove the supernatant, and each well was washed three times with 0.05% Tween-20-containing PBS in the same manner as after the primary antibody reaction. After removing the supernatant by centrifuging the plate, the plate was dried as it was with air at room temperature for 3 hours or more, and the 800-nm fluorescent signals were measured with Aerius.
With the signaling value at the time of addition of DMSO taken as 100% and with the signaling value at the time of addition of 1 μM trametinib taken as 0%, the 50% inhibition values (IC50) were calculated by Sigmoid-Emax model nonlinear regression analysis. The molecular weights of the test compounds were calculated as the molecular weights of the dihydrochloride for Example No. 22, the trihydrochlorides for Example Nos. 2-7, 9-12, 14-18 and 30, the tetrahydrochlorides for Example Nos. 19 and 46, the pentahydrochloride for Example No. 21 and the free forms forming no salt for the remaining Example Nos. The results for some test compounds of the formula (I) are shown in Table 3.

[2] = test system: human G12D mutant KRAS-positive pancreatic cancer line AsPC-1; assay: Test Example 3: non-anchorage-dependent cell growth inhibition, spheroid 3D cell culture; format: cell-based; conditions: AsPC-1 spheroid 3D culture, 6 days, CellTiter Glo 2.0
Procedure: Test Example 3: Evaluation of Non-Anchorage-Dependent Cell Growth Inhibition Action on Human G12D Mutant KRAS-Positive Pancreatic Cancer Line AsPC-1
The non-anchorage-dependent cell growth inhibition action of test compounds was evaluated by spheroid 3D cell culture.
AsPC-1 cells were seeded on a low-cell-adhesive round bottom 384-well plate (PrimeSurface: from Sumitomo Bakelite) at 36 μL/well to give 5×10^2 cells per well. The cell culture was performed under the same conditions as in the Test Example 2.
The next day, the test compounds (6 points having final concentrations in the range of 10 μM to 3.0 nM) and DMSO, which was the solvent for the test compounds, as a negative control were diluted 100-fold with a fresh medium and were added at 4 μL per well. After culturing in the presence of […] at 37° C. for 6 days, CellTiter Glo 2.0 (from Promega) was added at 20 μL per well. After stirring with a plate mixer (from FINEPCR) at normal temperature for 1 hour, the luminescent signals were measured with ARVO X3 (from PerkinElmer).
With the signaling value in treatment with DMSO taken as […] and with the signaling value in the medium alone without cells taken as […], the […] inhibition values (IC50) were calculated by Sigmoid-Emax model nonlinear regression analysis. The molecular weights of the test compounds were calculated as the molecular weights of the dihydrochloride for Example No. 22, the trihydrochlorides for Example Nos. 2-7, 9-12, 14-18 and 30, the tetrahydrochlorides for Example Nos. 19 and 46, the pentahydrochloride for Example No. 21 and the free forms forming no salt for the remaining Example Nos. The results for some test compounds of the formula (I) are shown in Table 4.

[3] = Homo sapiens, ASPC1, 24 h, read-out: IC50
[4] = Homo sapiens, ASPC1, 144 h, read-out: IC50

Compound	IC50 ([1]; Homo sapiens, ASPC1, 24 h) [nM]	IC50 ([2]; Homo sapiens, ASPC1, 144 h) [nM]	also measured
Cc1c(F)cc2[nH]ncc2c1-c1c(C2CC2)cc2c(N3C[C@@H]4C[C@H]3CN4)nc(OC3CCOCC3)nc2c1OCc1ccc(-c2cn([C@H](C(=O)N3C[C@H](O)C[C@H]3C(=O)N[C@@H](CO)c3ccc(-c4ccnn4C)cc3)C(C)C)nn2)cc1 [Example 22]	12	27	
Cc1ncsc1-c1ccc([C@H](CO)NC(=O)[C@@H]2C[C@@H](O)CN2C(=O)[C@H](C(C)C)n2cc(-c3ccc(COc4c(-c5c(C)c(F)cc6[nH]ncc56)c(C5CC5)cc5c(N6C[C@@H]7C[C@H]6CN7)nc(OCC67CCCN6CCC7)nc45)cc3)nn2)cc1 [Example 44]	95	266	
CO[C@@H](C)COc1nc(N2C[C@@H]3C[C@H]2CN3)c2cc(C3CC3)c(-c3c(C)c(F)cc4[nH]ncc34)c(OCc3ccc(-c4cn([C@H](C(=O)N5C[C@H](O)C[C@H]5C(=O)N[C@@H](CO)c5ccc(F)cc5)C(C)C)nn4)cc3)c2n1 [Example 58]	25	80	
CCn1nccc1-c1ccc([C@H](CO)NC(=O)[C@@H]2C[C@@H](O)CN2C(=O)[C@H](C(C)C)n2cc(-c3ccc(COc4c(-c5c(C)c(F)cc6[nH]ncc56)c(C5CC5)cc5c(N6C[C@@H]7C[C@H]6CN7)nc(OC6CCOCC6)nc45)cc3)nn2)cc1 [Example 26]	8	20	
Cc1ncsc1-c1ccc([C@H](CO)NC(=O)[C@@H]2C[C@@H](O)CN2C(=O)[C@H](C(C)C)n2cc(-c3ccc(COc4c(-c5c(C)c(F)cc6[nH]ncc56)c(C5CC5)cc5c(N6C[C@@H]7C[C@H]6CN7)nc(OC6CCN(CC(F)F)CC6)nc45)cc3)nn2)cc1 [Example 21]			IC50 [1, 3]: 19 nM; IC50 [2, 4]: 47 nM
CO[C@@H](C)[C@H](C)Oc1nc(N2C[C@@H]3C[C@H]2CN3)c2cc(C3CC3)c(-c3c(C)c(F)cc4[nH]ncc34)c(OCc3ccc(-c4cn([C@H](C(=O)N5C[C@H](O)C[C@H]5C(=O)N[C@@H](CO)c5ccc(-c6scnc6C)cc5)C(C)C)nn4)cc3)c2n1 [Example 41]	17	31	
Cc1ncsc1-c1ccc([C@H](CO)NC(=O)[C@@H]2C[C@@H](O)CN2C(=O)[C@H](C(C)C)n2cc(-c3ccc(COc4c(-c5c(C)c(F)cc6[nH]ncc56)c(C5CC5)cc5c(N6C[C@@H]7C[C@H]6CN7)nc(OC[C@H]6CCCN6C)nc45)cc3)nn2)cc1 [Example 60]	50	127	
Cc1ncsc1-c1ccc([C@@H](CO)NC(=O)[C@@H]2C[C@@H](O)CN2C(=O)[C@H](C(C)C)n2cc(-c3ccc(COc4c(-c5c(C)c(F)cc6[nH]ncc56)c(C5CC5)cc5c(N6C[C@@H]7C[C@H]6CN7)nc(OC6CCOCC6)nc45)cc3)nn2)cc1 [Example 68]			IC50 [1, 3]: 2210 nM; IC50 [2, 4]: 1630 nM
Cc1c(F)cc2[nH]ncc2c1-c1c(C2CC2)cc2c(N3C[C@@H]4C[C@H]3CN4)nc(OC3CCOCC3)nc2c1OCc1ccc(-c2cn([C@H](C(=O)N3C[C@H](O)C[C@H]3C(=O)N[C@@H](CO)c3ccc(-n4ccnc4C)cc3)C(C)C)nn2)cc1 [Example 69]			IC50 [1, 3]: 17 nM; IC50 [2, 4]: 64 nM
Cc1ncsc1-c1ccc([C@H](C)NC(=O)[C@@H]2C[C@@H](O)CN2C(=O)[C@H](C(C)C)n2cc(-c3ccc(COc4c(-c5c(C)c(F)cc6[nH]ncc56)c(C5CC5)cc5c(N6C[C@@H]7C[C@H]6CN7)nc(OC6CCOCC6)nc45)cc3)nn2)cc1 [Example 9]	18	96	
Cc1c(F)cc2[nH]ncc2c1-c1c(C2CC2)cc2c(N3C[C@@H]4C[C@H]3CN4)nc(OC3CCOCC3)nc2c1OCc1ccc(-c2cn([C@H](C(=O)N3C[C@H](O)C[C@H]3C(=O)N[C@@H](CO)c3ccc(-c4ccnn4C)cc3)C(C)C)nn2)cc1 [Example 23]			IC50 ([1]; 24 hours): 10 nM; IC50 [2]: 21 nM
Cc1c(F)cc2[nH]ncc2c1-c1c(C2CC2)cc2c(N3C[C@@H]4C[C@H]3CN4)nc(OC3CCOCC3)nc2c1OCc1ccc(-c2cn([C@H](C(=O)N3C[C@H](O)C[C@H]3C(=O)N[C@@H](CO)c3ccc(-c4scnc4CO)cc3)C(C)C)nn2)cc1 [Example 18, (4R)-1-[(2S)-2-(4-{4-[({6-cyclopropyl-4-[(1S,4S)-2,5-diazabicyclo[2.2.1]heptan-2-yl]-7-(6-fluoro-5-methyl-1H-indazol-4-yl)-2-[(oxan-4-yl)oxy]quinazolin-8-yl}oxy)methyl]phenyl}-1H-1,2,3-triazol-1-yl)-3-methylbutanoyl]-4-hydroxy-N-[(1R)-2-hydroxy-1-{4-[4-(hydroxymethyl)-1,3-thiazol-5-yl]phenyl}ethyl]-L-prolinamide n hydrochloride]			IC50 [1, 3]: 28 nM; IC50 [2, 4]: 70 nM
Cc1ncsc1-c1ccc([C@H](CO)NC(=O)[C@@H]2C[C@@H](O)CN2C(=O)C(C(C)C)n2cc(-c3ccc(COc4c(-c5c(C)c(F)cc6[nH]ncc56)c(C5CC5)cc5c(N6C[C@@H]7C[C@H]6CN7)nc(OC6CCOCC6)nc45)cc3)cn2)cc1 (single isomer, unassigned) [Example 11]	39	128	
Cc1ncsc1-c1ccc([C@H](CO)NC(=O)[C@@H]2C[C@@H](O)CN2C(=O)[C@H](C(C)C)n2cc(-c3ccc(COc4c(-c5c(C)c(F)cc6[nH]ncc56)c(C5CC5)cc5c(N6C[C@@H]7C[C@H]6CN7)nc(OC6CCN(C7COC7)CC6)nc45)cc3)nn2)cc1 [Example 24]	25	55	
Cc1ncsc1-c1ccc([C@H](CO)NC(=O)[C@@H]2C[C@@H](O)CN2C(=O)[C@H](C(C)C)n2cc(-c3ccc(COc4c(-c5c(C)c(F)cc6[nH]ncc56)c(C5CC5)cc5c(N6C[C@@H]7C[C@H]6CN7)nc(OC[C@H]6CCOC6)nc45)cc3)nn2)cc1 [Example 51]	14	27	
Cc1ncsc1-c1ccc([C@H](CO)NC(=O)[C@@H]2C[C@@H](O)CN2C(=O)[C@H](C(C)C)n2cc(-c3ccc(COc4c(-c5c(C)c(F)cc6[nH]ncc56)c(C5CC5)cc5c(N6C[C@@H]7C[C@H]6CN7)nc(O[C@H]6CCN(CC(F)F)C6)nc45)cc3)nn2)cc1 [Example 33]	32	42	
Cc1ncsc1-c1ccc([C@H](CF)NC(=O)[C@@H]2C[C@@H](O)CN2C(=O)[C@H](C(C)C)n2cc(-c3ccc(COc4c(-c5c(C)c(F)cc6[nH]ncc56)c(C5CC5)cc5c(N6C[C@@H]7C[C@H]6CN7)nc(OC6CCOCC6)nc45)cc3)nn2)cc1 [Example 17]			IC50 [1, 3]: 36 nM; IC50 [2, 4]: 104 nM
